Conditions: 323.15 K, Liquid, Vibrating tube method

CCCCC(=O)OCC(COC(=O)CCCC)(COC(=O)CCCC)COC(=O)CCCC [pentaerythritol tetrapentanoate]
Conditions | mass density [kg/m3]
2620 kPa | 996.4
2660.6 kPa | 996.5
2696.9 kPa | 996.5
2718.7 kPa | 996.6
2740.2 kPa | 996.6
2766.8 kPa | 996.6
2789.3 kPa | 996.7
2812.2 kPa | 996.6
2835.1 kPa | 996.5
2863.3 kPa | 996.6
2886.9 kPa | 996.7
2911 kPa | 996.7
2989.9 kPa | 996.7
3015.4 kPa | 996.6
3041 kPa | 996.8
3072.2 kPa | 996.8
3098.9 kPa | 996.7
3127.4 kPa | 996.8
3156.2 kPa | 996.9
3188.1 kPa | 996.9
3211.7 kPa | 996.9
3262.5 kPa | 996.8
3273.9 kPa | 997
3286 kPa | 997.1
3299.4 kPa | 997
3310.7 kPa | 996.9
3322.8 kPa | 997
3337.8 kPa | 996.9
3347.6 kPa | 997
3361.4 kPa | 997.1
3373 kPa | 997
3399.5 kPa | 997
3411.5 kPa | 997.1
3423.8 kPa | 997.1
3438.5 kPa | 997.1
3453.3 kPa | 997.1
3522.2 kPa | 997
3637.3 kPa | 997.2
3714.9 kPa | 997.3
3733.1 kPa | 997.2
3751.4 kPa | 997.3
3769.8 kPa | 997.4
3791.1 kPa | 997.3
3809.5 kPa | 997.4
3828.4 kPa | 997.3
3846.7 kPa | 997.3
3869.1 kPa | 997.3
3887.6 kPa | 997.3
3909.9 kPa | 997.3
3929 kPa | 997.5
3947.9 kPa | 997.4
3967.4 kPa | 997.4
3987.2 kPa | 997.5
4010 kPa | 997.4
4029.3 kPa | 997.5
4049 kPa | 997.5
4072.7 kPa | 997.4
4092.3 kPa | 997.5
4112.7 kPa | 997.6
4137.3 kPa | 997.5
4158.1 kPa | 997.5
4179.1 kPa | 997.6
4200.2 kPa | 997.6
4225 kPa | 997.6
4246.8 kPa | 997.7
4268.4 kPa | 997.5
4290.2 kPa | 997.6
4316 kPa | 997.7
4337.7 kPa | 997.6
4359.8 kPa | 997.7
4382.3 kPa | 997.8
4409 kPa | 997.7
4431.7 kPa | 997.7
4454.9 kPa | 997.7
4478.1 kPa | 997.8
4506.5 kPa | 997.9
4529.8 kPa | 997.9
4554.2 kPa | 997.9
4579 kPa | 997.8
4607.9 kPa | 998
4632.1 kPa | 997.9
4657.2 kPa | 998
4688.4 kPa | 997.9
4714.7 kPa | 997.9
4741.5 kPa | 998
4773.2 kPa | 998
4800.4 kPa | 998
4827.4 kPa | 998
4855.4 kPa | 997.9
4889.5 kPa | 998.1
4918.2 kPa | 998.1
4946.4 kPa | 998.1
4975.1 kPa | 998.2
4978.1 kPa | 998.3
4995.6 kPa | 998.2
4997.5 kPa | 998.3
5038.8 kPa | 998.1
5039.2 kPa | 998.3
5039.4 kPa | 998.2
5040 kPa | 998.2
5040.7 kPa | 998.2
5041.6 kPa | 998.2
5042.1 kPa | 998.1
5042.6 kPa | 998.2
5044 kPa | 998.2
5052.3 kPa | 998.3
5059.4 kPa | 998.3
5066.5 kPa | 998.4
5073.8 kPa | 998.2
5082.4 kPa | 998.2
5089.7 kPa | 998.2
5097 kPa | 998.3
5105.8 kPa | 998.3
5113.1 kPa | 998.3
5120.5 kPa | 998.3
5128 kPa | 998.3
5134.7 kPa | 998.4
5142.3 kPa | 998.3
5150.8 kPa | 998.3
5158.4 kPa | 998.2
5166.2 kPa | 998.2
5174.9 kPa | 998.3
5182.5 kPa | 998.3
5189.9 kPa | 998.3
5197.3 kPa | 998.3
5206 kPa | 998.3
5213.8 kPa | 998.3
5221.7 kPa | 998.3
5229.5 kPa | 998.3
5238.5 kPa | 998.5
5246.1 kPa | 998.3
5254.1 kPa | 998.4
5261.5 kPa | 998.4
5270.5 kPa | 998.3
5278.7 kPa | 998.4
5287.8 kPa | 998.4
5295.3 kPa | 998.4
5303 kPa | 998.5
5312.6 kPa | 998.3
5320.7 kPa | 998.4
5329.2 kPa | 998.5
5336.8 kPa | 998.3
5345.1 kPa | 998.5
5352.9 kPa | 998.5
5362.7 kPa | 998.5
5370.9 kPa | 998.4
5379 kPa | 998.5
5388.7 kPa | 998.4
5397.1 kPa | 998.5
5405.1 kPa | 998.5
5413.1 kPa | 998.3
5422.9 kPa | 998.5
5431 kPa | 998.5
5439.2 kPa | 998.5
5449.6 kPa | 998.4
5457.5 kPa | 998.4
5465.6 kPa | 998.5
5473.9 kPa | 998.4
5483.8 kPa | 998.6
5491.6 kPa | 998.5
5499.5 kPa | 998.6

— the NIST ThermoML archive (doi:10.1021/je060271a)
